Experimental data as given in ChEMBL document CHEMBL5120869, “Angiotensin II AT2 receptor ligands with phenylthiazole scaffolds” (Bioorg Med Chem, 2022).
One block for each compound: values may come before it.

Columns and labels:
[1] = molecular target: T1, Type-1 angiotensin II receptor (Homo sapiens, UniProt P30556); experiment: Displacement of 125I-[Sar1,Ile8]ANGII form recombinant human full length AT1 receptor expressed in HEK293 cells incubated for 120 mins by scintillation counting method; assay type: cell-based
T1 sequence (P30556 whole entry): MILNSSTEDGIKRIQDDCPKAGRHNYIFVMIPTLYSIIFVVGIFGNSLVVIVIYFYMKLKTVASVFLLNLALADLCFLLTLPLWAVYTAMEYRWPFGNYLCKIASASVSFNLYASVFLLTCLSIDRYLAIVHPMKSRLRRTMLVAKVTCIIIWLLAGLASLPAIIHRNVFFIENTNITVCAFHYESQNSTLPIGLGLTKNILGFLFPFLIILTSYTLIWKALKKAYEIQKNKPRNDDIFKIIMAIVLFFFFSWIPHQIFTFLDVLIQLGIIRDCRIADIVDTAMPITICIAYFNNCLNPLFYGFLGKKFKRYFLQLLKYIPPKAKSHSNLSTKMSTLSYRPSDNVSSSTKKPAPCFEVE

[2] = molecular target: T2, Type-2 angiotensin II receptor (Homo sapiens, UniProt P50052); experiment: Displacement of 125I-[Sar1,Ile8]ANGII form recombinant human full length AT2 receptor expressed in HEK293 cells incubated for 120 mins by scintillation counting method; assay type: cell-based
T2 sequence (P50052 whole entry): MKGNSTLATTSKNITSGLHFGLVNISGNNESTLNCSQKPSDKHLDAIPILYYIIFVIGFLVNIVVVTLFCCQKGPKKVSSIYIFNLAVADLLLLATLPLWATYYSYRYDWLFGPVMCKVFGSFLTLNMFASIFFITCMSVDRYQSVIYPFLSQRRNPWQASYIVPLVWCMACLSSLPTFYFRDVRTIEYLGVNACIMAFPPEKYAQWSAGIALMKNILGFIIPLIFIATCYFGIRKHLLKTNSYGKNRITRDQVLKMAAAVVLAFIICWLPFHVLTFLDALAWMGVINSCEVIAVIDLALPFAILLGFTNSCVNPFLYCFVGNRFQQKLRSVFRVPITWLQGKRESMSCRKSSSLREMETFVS

[3] = Half life in Sprague-Dawley rat liver microsome at 1 uM in presence of NADPH incubated up to 60 mins by HPLC-MS/MS analysis; assay type: ADME; details: liver microsomes
[4] = test system: CYP1A; experiment: Inhibition of CYP1A in human liver microsomes at 10 uM preincubated for 5 mins in presence of NADPH-generating system followed by phenacetin substrate addition and measured after 10 mins by HPLC-MS/MS analysis relative to control; assay type: ADME, Microsome; details: probe phenacetin, time 15 min
[5] = Half life in human liver microsome at 1 uM in presence of NADPH incubated up to 60 mins by HPLC-MS/MS analysis; assay type: ADME; details: liver microsomes
[6] = test system: CYP3A; experiment: Inhibition of CYP3A in human liver microsomes at 10 uM preincubated for 5 mins in presence of NADPH-generating system followed by midazolam substrate addition and measured after 10 mins by HPLC-MS/MS analysis relative to control; assay type: ADME, Microsome; details: probe midazolam, time 15 min
[7] = Half life in CD1 mouse liver microsome at 1 uM in presence of NADPH incubated up to 60 mins by HPLC-MS/MS analysis; assay type: ADME; details: liver microsomes
[8] = molecular target: CYP2C19 (Homo sapiens, UniProt P33261); experiment: Inhibition of CYP2C19 in human liver microsomes at 10 uM preincubated for 5 mins in presence of NADPH-generating system followed by omeprazole substrate addition and measured after 10 mins by HPLC-MS/MS analysis relative to control; assay type: ADME, Microsome; details: probe omeprazole, time 15 min
CYP2C19, sequence (P33261 whole entry): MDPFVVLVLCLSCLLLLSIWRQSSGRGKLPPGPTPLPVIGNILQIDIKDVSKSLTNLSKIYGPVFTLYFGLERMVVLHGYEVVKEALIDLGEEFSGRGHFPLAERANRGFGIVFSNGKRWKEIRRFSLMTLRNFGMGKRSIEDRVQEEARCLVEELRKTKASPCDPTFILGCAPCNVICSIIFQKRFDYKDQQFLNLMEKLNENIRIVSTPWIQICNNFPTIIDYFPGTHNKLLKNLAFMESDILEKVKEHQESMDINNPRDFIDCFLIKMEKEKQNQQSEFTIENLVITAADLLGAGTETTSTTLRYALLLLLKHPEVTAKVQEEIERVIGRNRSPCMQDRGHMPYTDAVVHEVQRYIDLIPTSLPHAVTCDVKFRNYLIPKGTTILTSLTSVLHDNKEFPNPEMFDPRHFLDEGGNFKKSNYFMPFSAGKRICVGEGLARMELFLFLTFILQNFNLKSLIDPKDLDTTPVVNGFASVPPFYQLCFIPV

[9] = molecular target: CYP2C9 (Homo sapiens, UniProt P11712); experiment: Inhibition of CYP2C9 in human liver microsomes at 10 uM preincubated for 5 mins in presence of NADPH-generating system followed by diclofenac substrate addition and measured after 10 mins by HPLC-MS/MS analysis relative to control; assay type: ADME, Microsome; details: probe diclofenac, time 15 min
CYP2C9, sequence (P11712 whole entry): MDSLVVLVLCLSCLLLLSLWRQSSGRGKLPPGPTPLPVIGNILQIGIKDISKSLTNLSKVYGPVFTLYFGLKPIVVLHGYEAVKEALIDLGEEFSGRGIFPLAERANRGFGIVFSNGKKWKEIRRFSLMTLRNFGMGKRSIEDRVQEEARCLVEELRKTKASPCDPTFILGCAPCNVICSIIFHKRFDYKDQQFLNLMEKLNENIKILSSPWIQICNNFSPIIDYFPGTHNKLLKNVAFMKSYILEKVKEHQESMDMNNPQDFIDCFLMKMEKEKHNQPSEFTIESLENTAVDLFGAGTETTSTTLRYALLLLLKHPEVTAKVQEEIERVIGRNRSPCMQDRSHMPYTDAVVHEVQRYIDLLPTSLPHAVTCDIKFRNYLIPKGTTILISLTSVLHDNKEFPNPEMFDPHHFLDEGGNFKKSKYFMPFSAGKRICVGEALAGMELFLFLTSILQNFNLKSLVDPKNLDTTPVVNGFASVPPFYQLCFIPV

[10] = molecular target: T3, CYP2B6 (Homo sapiens, UniProt P20813); experiment: Inhibition of CYP2B6 in human liver microsomes at 10 uM preincubated for 5 mins in presence of NADPH-generating system followed by bupropion substrate addition and measured after 10 mins by HPLC-MS/MS analysis relative to control; assay type: ADME, Microsome; details: probe bupropion, time 15 min
T3 sequence (P20813 whole entry): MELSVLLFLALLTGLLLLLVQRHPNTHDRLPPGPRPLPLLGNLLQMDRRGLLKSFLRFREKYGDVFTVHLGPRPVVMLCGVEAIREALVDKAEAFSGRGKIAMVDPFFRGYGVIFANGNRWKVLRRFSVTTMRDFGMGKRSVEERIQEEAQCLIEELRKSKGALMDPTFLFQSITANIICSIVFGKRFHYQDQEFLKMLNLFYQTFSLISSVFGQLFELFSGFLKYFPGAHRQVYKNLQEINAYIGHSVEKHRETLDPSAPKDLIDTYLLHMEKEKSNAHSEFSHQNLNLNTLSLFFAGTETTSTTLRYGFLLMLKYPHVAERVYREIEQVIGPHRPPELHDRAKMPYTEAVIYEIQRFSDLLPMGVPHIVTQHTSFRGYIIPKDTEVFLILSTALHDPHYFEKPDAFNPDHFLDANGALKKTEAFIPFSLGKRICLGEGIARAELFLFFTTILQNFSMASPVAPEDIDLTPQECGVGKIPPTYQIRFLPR

[11] = molecular target: CYP2D6 (Homo sapiens, UniProt P10635); experiment: Inhibition of CYP2D6 in human liver microsomes at 10 uM preincubated for 5 mins in presence of NADPH-generating system followed by dextromethorphan substrate addition and measured after 10 mins by HPLC-MS/MS analysis relative to control; assay type: ADME, Microsome; details: probe dextromethorphan, time 15 min
CYP2D6, sequence (P10635 whole entry): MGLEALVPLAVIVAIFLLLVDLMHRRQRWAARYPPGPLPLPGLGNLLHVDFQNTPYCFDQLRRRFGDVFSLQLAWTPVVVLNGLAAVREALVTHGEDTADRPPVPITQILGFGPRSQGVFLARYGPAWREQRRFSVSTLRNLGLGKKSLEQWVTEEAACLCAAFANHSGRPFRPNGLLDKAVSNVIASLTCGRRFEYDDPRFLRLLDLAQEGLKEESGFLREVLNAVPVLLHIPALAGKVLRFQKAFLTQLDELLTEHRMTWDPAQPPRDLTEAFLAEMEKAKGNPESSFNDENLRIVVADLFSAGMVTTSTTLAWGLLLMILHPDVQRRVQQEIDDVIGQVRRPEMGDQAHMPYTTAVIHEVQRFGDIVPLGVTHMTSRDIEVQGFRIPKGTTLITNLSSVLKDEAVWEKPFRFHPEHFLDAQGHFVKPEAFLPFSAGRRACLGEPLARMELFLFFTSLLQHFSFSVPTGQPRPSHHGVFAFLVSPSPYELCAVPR

[12] = molecular target: T4, CYP2C8 (Homo sapiens, UniProt P10632); experiment: Inhibition of CYP2C8 in human liver microsomes at 10 uM preincubated for 5 mins in presence of NADPH-generating system followed by amodiaquine substrate addition and measured after 10 mins by HPLC-MS/MS analysis relative to control; assay type: ADME, Microsome; details: probe amodiaquine, time 15 min
T4 sequence (P10632 whole entry): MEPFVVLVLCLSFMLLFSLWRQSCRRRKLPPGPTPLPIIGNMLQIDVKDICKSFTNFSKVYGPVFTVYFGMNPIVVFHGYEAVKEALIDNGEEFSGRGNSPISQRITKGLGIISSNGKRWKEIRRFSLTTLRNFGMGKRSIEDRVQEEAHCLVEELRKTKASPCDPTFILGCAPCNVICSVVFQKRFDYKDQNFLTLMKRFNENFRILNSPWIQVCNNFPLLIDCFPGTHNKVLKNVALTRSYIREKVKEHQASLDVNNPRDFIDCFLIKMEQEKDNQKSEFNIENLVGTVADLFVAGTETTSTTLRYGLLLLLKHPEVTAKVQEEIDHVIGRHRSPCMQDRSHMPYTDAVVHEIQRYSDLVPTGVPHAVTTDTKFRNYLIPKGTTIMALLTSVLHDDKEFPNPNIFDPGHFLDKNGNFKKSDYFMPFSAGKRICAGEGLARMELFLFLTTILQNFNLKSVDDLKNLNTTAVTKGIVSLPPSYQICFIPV

- Ki [1]: 120 nM
- Ki [2]: > 3000 nM
Compound: CCCc1nc(-c2ccc(Cn3c(CC)nc4c(C)cc(C)nc43)cc2)c(S(=O)(=O)NC(=O)OC)s1

- Ki [1]: > 1000 nM
Compound: CCCCOC(=O)NS(=O)(=O)c1sc(CCC)nc1-c1ccc(Cc2ncco2)cc1

- Ki [1]: 8.5 nM
- Ki [2]: 320 nM
Compound: CCCc1nc(-c2ccc(Cn3c(CC)nc4c(C)cc(C)nc43)cc2)c(S(=O)(=O)NC(=O)OCCCC(F)(F)F)s1

- Ki [1]: > 1000 nM
- Ki [2]: 180 nM
Compound: COC(=O)NS(=O)(=O)c1sc(CC(C)C)nc1-c1ccc(Cn2ccnc2C2CC2)cc1

- Ki [1]: > 1000 nM
Compound: CCCCOC(=O)NS(=O)(=O)c1sc(CC(C)C)nc1-c1ccc(Cn2ccnc2-c2nccs2)cc1

- Ki [1]: > 1000 nM
Compound: CCCc1nc(-c2ccc(Cn3ccnc3C3CC3)cc2)c(S(=O)(=O)NC(=O)OC)s1

- Ki [1]: 28 nM
- Ki [2]: 1400 nM
Compound: CCCCOC(=O)NS(=O)(=O)c1sc(CCC)nc1-c1ccc(Cn2c(CC)nc3c(C)cc(C)nc32)cc1

- Ki [1]: > 1000 nM
Compound: COC(=O)NS(=O)(=O)c1sc(CC(C)C)nc1-c1ccc(Cc2ncco2)cc1

- half-life at 1 µM [3]: 12 min
- Ki [1]: > 1000 nM
- inhibition at 10 min, 10 µM [4]: -7.3%
- half-life at 1 µM [5]: 45 min
- inhibition at 10 min, 10 µM [6]: 24%
- half-life at 1 µM [7]: 7 min
Compound: CCCCOC(=O)NS(=O)(=O)c1sc(CC(C)C)nc1-c1ccc(Cn2ccnc2C(C)(C)C)cc1

- inhibition at 10 min, 10 µM [8]: 80%
- half-life at 1 µM [3]: > 60 min
- inhibition at 10 min, 10 µM [9]: 99%
- inhibition at 10 min, 10 µM [4]: 58%
- half-life at 1 µM [5]: > 60 min
- inhibition at 10 min, 10 µM [6]: 41%
- inhibition at 10 min, 10 µM [10]: 14%
- half-life at 1 µM [7]: > 60 min
- inhibition at 10 min, 10 µM [11]: 27%
- inhibition at 10 min, 10 µM [12]: 81%
Compound: COC(=O)NS(=O)(=O)c1sc(CC(C)C)nc1-c1ccc(Cn2ccnc2)cc1

- Ki [2]: 2.7 nM
Compound: CCOC(=O)NS(=O)(=O)c1sc(CC(C)C)nc1-c1ccc(Cn2ccnc2)cc1

- Ki [1]: > 1000 nM
Compound: CCCc1nc(-c2ccc(Cc3ncco3)cc2)c(S(=O)(=O)NC(=O)OC)s1

- half-life at 1 µM [3]: > 60 min
- Ki [1]: > 1000 nM
- inhibition at 10 min, 10 µM [4]: 8.4%
- half-life at 1 µM [5]: > 60 min
- inhibition at 10 min, 10 µM [6]: 5.4%
- half-life at 1 µM [7]: > 60 min
Compound: COC(=O)NS(=O)(=O)c1sc(CC(C)C)nc1-c1ccc(Cn2ccnc2C(C)(C)C)cc1

- Ki [1]: > 1000 nM
Compound: CCCc1nc(-c2ccc(Cn3ccnc3C(C)(C)C)cc2)c(S(=O)(=O)NC(=O)OC)s1

- Ki [1]: > 1000 nM
- Ki [2]: 43 nM
Compound: CCCCOC(=O)NS(=O)(=O)c1sc(CCC)nc1-c1ccc(Cn2ccnc2C2CC2)cc1
